Source: publication PMC6443933, “Antagonizing Retinoic Acid-Related-Orphan Receptor Gamma Activity Blocks the T Helper 17/Interleukin-17 Pathway Leading to Attenuated Pro-inflammatory Human Keratinocyte and Skin Responses” (Frontiers in Immunology, 2019)
Each block holds one molecule with its values, some of them ahead of it. * marks the point of attachment. Biotin = O=C1N[C@H]2[C@H](CS[C@H]2CCCCC(=O)*)N1; Ahx = NCCCCCC(=O)O

Legend:
[1] = system: STAT3 phosphorylation in Ba/F3 cells stably expressing the human IL-21 receptor; test: IL-21-induced phospho-STAT3 by flow cytometry; format: cell-based; settings: 1 μM, 1 h pre-incubation
Protocol: To assess whether Cpd A affected STAT3 activity we induced STAT3 phosphorylation in Ba/F3 cells stably expressing the human IL-21 receptor (kindly provided by Dr. Max Warncke, Novartis). Cells were pre-incubated for 1 h with 10 μM of Cpd A or with 1 μM of the pan-JAK inhibitor CP690550. To induce STAT3 activity, the cells were stimulated for 1.5 h with recombinant human IL-21 (3 nM), followed by two washing steps using buffer containing PBS/0.5% BSA. The cells were fixed with 2% paraformaldehyde for 15 min at room temperature, washed and resuspended in ice-cold 90% methanol solution and stored overnight at −20°C. The samples were washed and stained for 1 h with an Alexa 647-labeled anti-phospho (pY705)-STAT3 antibody (BD biosciences). After two washes the cells were analyzed using a LSR Fortessa (BD Bioscience) and analyzed using FlowJo software (Tree Star).

total human CD4+ T-cells = test: Th17 polarization of total CD4+ T-cells, cytokine ELISA; format: cell-based; settings: total CD4+ T-cells, Th17 polarization 72 h, ELISA; read-out: IC50, IL-17A secretion
Protocol: Total, naive and memory CD4^+ T cells were isolated from Peripheral blood mononuclear cells (PBMCs) from healthy volunteers by density gradient centrifugation using Ficoll Paque (GE). Total, naive or memory CD4^+ T-cells were prepared by immunomagnetic separation using the respective CD4^+ T-cell enrichment kits resulting in untouched highly purified subsets (EasySep™, Stem Cell). Purity was assessed by flow cytometry and was between 95 and 98% for the total CD4^+ T-cells. The purity of naive (CD45RA^+CD45RO^−) and memory (CD45RA^−CD45RO^+) CD4^+T-cells ranged between 95 and 98%, respectively. For T-cell stimulation experiments, cells were treated as previously published ([44]). Briefly, T-cells were stimulated with plate-bound monoclonal antibodies against CD3 (1 μg/ml, clone OKT-3, BioXcell) and CD28 (1 μg/ml, clone CD28.2, BioLegend). For Th17 polarization assays, IL-6 (20 ng/ml), TGF-β1 (5 ng/ml), IL-1β (10 ng/ml), and IL-23 (10 ng/ml) were added. For Th1 polarization assays, IL-12 (10 ng/ml) and anti-IL-4 antibody (5 μg/ml), for Th2 polarizations, IL-4 (10 ng/ml) and anti-IFN-γ antibody (5 μg/ml) were added. For Th0 polarization assays, cells were only stimulated with CD3 and CD28 antibodies. Supernatants were collected after 3 or 7 days of incubation for total or naive/memory CD4^+ T-cell polarizations, respectively. Cytokine concentrations were quantified by ELISA according to the manufacturer's instructions (eBioscience or BioLegend).

[2] = system: HUT78 T-cells stably expressing full-length eGFP-RORγt; test: IL-17A / IL-2 production by RORγt transduced HUT78 T-cell line; format: cell-based, human; settings: PMA plus anti-CD3, 48 h, ELISA
HaCaT keratinocytes = test: IL-17-driven HaCaT keratinocyte responses (Th17 supernatants or spiked cytokines), qRT-PCR; format: cell-based, human
Protocol: (§1) The HaCaT keratinocyte cell line was purchased from AddexBio and was maintained in RPMI 1640 medium supplemented with Glutamax, Penicillin/Streptomycin (all from Gibco) and 10% FCS (PAA). Normal primary human epidermal keratinocytes (NHEKs) were purchased from Lonza and PromoCell, respectively. Cells were cultured in Keratinocyte basal growth medium (KBM; Lonza) containing KGM2 growth supplements including insulin, human epidermal growth factor, bovine pituitary extract, hydrocortisone, epinephrine, transferrin, and gentamicin/amphotericin B (Lonza). HaCaT cells were incubated in a 96-well-microtiter plate (2 × 10^4 cells/well) with Th17 cytokine-containing supernatants obtained from total CD4^+ T-cells that were polarized for 72 h in the presence of anti-CD3/CD28 antibodies and a Th17 polarization cocktail as described above. […] Cytokine concentrations in supernatants were determined from representative experiments and they contained approximately 150 pg/ml or 600 pg/ml of IL-17 in 10 μM or in 0.13 nM treated samples, respectively. The TNF-α concentration was similar in supernatants exposed to low or high Cpd A concentrations and was 4 ng/ml. To study the impact of the IL-17 cytokine, IL-17 in the supernatants and in the spike-in cocktails was neutralized by a 0.5 h pre-incubation with an IL-17-specific antibody [0.75 μg/ml; Secukinumab (Cosentyx®, Novartis)]. All cultures were incubated in triplicates and after a 24 h incubation period, HaCaT cells (6 × 10^4 cells/sample) and NHEKs (1 × 10^5 cells/sample) were harvested and further processed for qRT-PCR analysis.
Total RNA from human Th17 cells (6 × 10^5 cells), RORγt-RORE HUT78 cells (4 × 10^5 cells) and HaCaT cells (6 × 10^4 cells) was extracted using RNeasy kit including a DNAse I digestion step according to the manufacturer‘s protocol (Qiagen). Frozen skin biopsies (8 mm punches) were resuspended in RLT buffer (Qiagen) containing 1% β-mercaptoethanol and homogenized using a Precellys-Cryolys device (Bertin Instruments) according to the manufacturer's instructions. cDNAs were prepared with the High Capacity cDNA Reverse Transcription Kit (Applied Biosystems). Quantitative RT-PCR analysis was performed using a TaqManViiA7 (Applied Biosystems). All runs were accompanied by the internal control gene human β-glucoronidase (Gus) (431088E). The samples were run in triplicate or in hexaplicate and normalized to Gus using the ΔΔCt method to provide arbitrary units representing relative expression levels. The following Taqman probes were used for RT-PCR (Thermo Scientific): RORC (Hs01076112_m1), IL17A (Hs00936345_m1), IL22 (Hs01574154_m1), IL26 (Hs00218189_m1), IL23R (Hs00332759_m1), CCR6 (Hs00218189_m1), NFKBIZ (Hs00355476_m), DEFB4A (Hs00823638_m1), IL36G (Hs00219742_m1), and CCL20 (Hs00355476_m1).

NHEKs = test: IL-17A/TNFα spike-in in primary keratinocytes (NHEKs), qRT-PCR; format: cell-based, human; settings: 0.75 μg/ml; similar to TNFα stimulation
Protocol: as §1, with “The TNF-α concentration was similar in supernatants exposed to low or high Cpd A concentrations and was 4 ng/ml. To study the impact of the IL-17 cytokine, IL-17 in the supernatants and in the spike-in cocktails was neutralized by a 0.5 h pre-incubation with an IL-17-specific antibody [0.75 μg/ml; Secukinumab (Cosentyx®, Novartis)]. All cultures were incubated in triplicates and after a 24 h incubation period, HaCaT cells (6 × 10^4 cells/sample) and NHEKs (1 × 10^5 cells/sample) were harvested and further processed for qRT-PCR analysis.” left out
Total RNA from human Th17 cells (6 × 10^5 cells), RORγt-RORE HUT78 cells (4 × 10^5 cells) and HaCaT cells (6 × 10^4 cells) was extracted using RNeasy kit including a DNAse I digestion step according to the manufacturer‘s protocol (Qiagen). […] Quantitative RT-PCR analysis was performed using a TaqManViiA7 (Applied Biosystems). […]

[3] = target: T1, human RORγt ligand binding domain (264-518), His6-tagged (human, UniProt P51449-1 264-518); test: FRET or BRET; TR-FRET in solution: 6 nM His6-tagged RORγt-LBD, 90 nM biotinylated RIP140 co-activator peptide, 0.45 nM Cy5-labeled streptavidin, 1.5 nM Europium-labeled anti-His6 antibody; 1 h incubation; emissions at 615 and 665 nm; displacement by the small molecules Cpd A or SR2211; settings: both partners purified
T1 construct: also called RORγt-LBD; His6-tagged RORγt-LBD; source: produced at Novartis
T1 sequence (looked up): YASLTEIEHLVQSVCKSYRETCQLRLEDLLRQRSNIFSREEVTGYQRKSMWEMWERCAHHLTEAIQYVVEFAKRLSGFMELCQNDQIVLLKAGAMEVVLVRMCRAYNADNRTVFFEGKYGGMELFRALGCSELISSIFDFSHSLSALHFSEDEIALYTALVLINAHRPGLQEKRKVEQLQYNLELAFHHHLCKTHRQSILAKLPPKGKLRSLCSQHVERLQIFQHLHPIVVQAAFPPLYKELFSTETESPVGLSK

Molecule: C[C@@H]1CCN(C(=O)CC#N)C[C@@H]1N(C)c1ncnc2[nH]ccc12 [CP690550, reference compound]
IL-21-induced STAT3 activity (pY705-STAT3) [1]: blocked

Molecule: OC(c1ccc(-c2ccc(CN3CCN(Cc4ccncc4)CC3)cc2)c(F)c1)(C(F)(F)F)C(F)(F)F [SR2211, reference compound]
IC50 (total human CD4+ T-cells): 1480 ± 739 nM
IC50 [2]: 257 ± 181 nM

Molecule: Secukinumab: neutralizing IL-17-selective antibody (Cosentyx, Novartis)
IL36G expression in HaCaT after IL-17 neutralization in Th17 supernatants (HaCaT keratinocytes; 0.75 μg/ml): moderate inhibition
IL-17A/TNFα-mediated gene expression in HaCaT (spike-in) (HaCaT keratinocytes; 0.75 μg/ml pre-incubation of cytokines, similar to TNFα-induced levels): significantly impaired
IL-17 activated transcripts in HaCaT after IL-17 neutralization in Th17 supernatants (HaCaT keratinocytes; 0.75 μg/ml, to levels seen with Th17 cytokines only): further downregulation
NFKBIZ, DEFB4A, CCL20, IL36G gene expression in NHEKs (spike-in) (NHEKs): reduced gene expression

binding result [3]: binds
B1: biotinylated RIP140 derived co-activator peptide (peptide)
peptide: {Biotin-Ahx}-NSHQKVTLLQLLLGHKNEEN-NH2
SMILES: CC(C)C[C@H](NC(=O)[C@H](CC(C)C)NC(=O)[C@H](CC(C)C)NC(=O)[C@H](CCC(N)=O)NC(=O)[C@H](CC(C)C)NC(=O)[C@H](CC(C)C)NC(=O)[C@@H](NC(=O)[C@@H](NC(=O)[C@H](CCCCN)NC(=O)[C@H](CCC(N)=O)NC(=O)[C@H](Cc1c[nH]cn1)NC(=O)[C@H](CO)NC(=O)[C@H](CC(N)=O)NC(=O)CCCCCNC(=O)CCCC[C@@H]1SC[C@@H]2NC(=O)N[C@@H]21)C(C)C)[C@@H](C)O)C(=O)NCC(=O)N[C@@H](Cc1c[nH]cn1)C(=O)N[C@@H](CCCCN)C(=O)N[C@@H](CC(N)=O)C(=O)N[C@@H](CCC(=O)O)C(=O)N[C@@H](CCC(=O)O)C(=O)N[C@@H](CC(N)=O)C(N)=O
notes: also called RIP140 peptide; source: bought: Thermo Scientific
